We go through eleven compounds from publication PMC9385959, “Mammalian derived lipocalin and secretoglobin respiratory allergens strongly bind ligands with potentially immune modulating properties” (Frontiers in Allergy, 2022).

Read-outs that look alike come from different tables or passages of the source.

In assay [1] the target is Cav p 1.0101 (Cavia porcellus, UniProt A0A484HM70, S19A). The assay can be described thus: Competitive fluorescence-quenching assay, Cav p 1.0101. The format is binding, guinea pig. To be noted: for inhibition at 50 µM / Mean fluorescence inhibition: 5 μM Cav p 1.0101-1-AMA complex, 50 μM ligand, n = 2. How it is done:
(§1) Fluorescence quenching assays were performed as previously described ([45]), with modifications. Fluorochromes and ligands were purchased from Sigma Aldrich (Steinheim, Germany), Carl Roth (Karlsruhe, Germany) and TCI Europe N.V. (Zwijndrecht, Belgium).
(§2) Stock solutions were prepared at a concentration of 10 mM in 100% ethanol for the fluorochromes 1-aminoanthracene (1-AMA), 8-anilino-1-naphthalensulfonic acid (1,8-ANS) and for all ligands, and in 100% methanol for n-phenyl-1-naphthylamine (1-NPN), respectively. Iron catecholate ligands (siderophores) were prepared as previously described ([46]). Fluorochrome-protein complexes were analyzed at an equimolar concentration of 5 μM in PBS with 5% ethanol in a volume of 100 μL per well in black 96-well non-binding microplates (Greiner Bio-One GmbH, Frickenhausen, Germany). Solutions containing only protein or the respective fluorescent probe in PBS with 5% ethanol served as controls. Fluorochrome-protein complexes were incubated with orbital shaking for 10 min at 500 rpm at room temperature (RT) before measurement using the fluorescence reader TECAN Infinite 200 Pro (Tecan Trading AG, Switzerland). Excitation wavelengths were fixed at 380 nm for 1-AMA and 1,8-ANS, and 337 nm for 1-NPN. Fluorescence emission spectra were recorded in 5 nm steps between 420 and 560 nm for 1-AMA and 1,8-ANS and between 380 and 500 nm for 1-NPN. The establishment of fluorescent quenching assay parameters for each allergen is explained in the results Section Fluorescence-quenching assay set up. Binding affinities were analyzed by non-linear regression in GraphPad Prism Version 9.3.1 (GraphPad Software, LLC). For the ligand competition assays, ligands were added to fluorochrome-allergen complexes with a final buffer composition of 5% ethanol in PBS in a volume of 100 μL and incubated for 30 min at 500 rpm at RT and further equilibrated for another 30 min without shaking before fluorescence measurement.
(§3) The binding affinities of non-fluorescent ligands is inferred to by their ability to compete and displace the fluorochromes bound to the allergen at a certain concentration. This leads to a measurable decrease in fluorescence intensity that will be expressed as fluorescence inhibition (Figure 6). For a given allergen, the ligand with the strongest inhibition has the highest binding affinity. […] Competitive ligand binding was analyzed by non-linear regression and inhibitory dissociation constants (Ki) were calculated.

The target of assay [2] is Cav p 1.0201 (Cavia porcellus, UniProt A0A484HRI4). Briefly: Competitive fluorescence-quenching assay, Cav p 1.0201. The format is binding, guinea pig. The note with it: for inhibition at 50 µM / Mean fluorescence inhibition: 5 μM Cav p 1.0201-1-AMA complex, 50 μM ligand, n = 2. As to the method: as §1, §2, §3
Assay [3] concerns Ory c 2. The assay can be described thus: Competitive fluorescence-quenching assay, Ory c 2. The format is binding, rabbit. To be noted: for Mean fluorescence inhibition: 5 μM Ory c 2-1-AMA complex, 50 μM ligand, n = 2. As to the method:
as §1, §2, §3

Assay [4] deals with Ory c 3 (Oryctolagus cuniculus, UniProt Q9GK63+Q9GK67). Briefly: Competitive fluorescence-quenching assay, Ory c 3. In kind it is binding, rabbit. The note with it: for inhibition at 50 µM: read-out: Mean fluorescence inhibition. How it is done:
as §1, §2, §3

Assay [5] has as its target T1, Fel d 1 (Felis catus, UniProt P30438+P30440).
T1 construct: polyhistidine tag (C); made in house; host or cells: E. coli Rosetta-gami 2
T1 sequence (P30438+P30440 with tags, fused parts or gaps): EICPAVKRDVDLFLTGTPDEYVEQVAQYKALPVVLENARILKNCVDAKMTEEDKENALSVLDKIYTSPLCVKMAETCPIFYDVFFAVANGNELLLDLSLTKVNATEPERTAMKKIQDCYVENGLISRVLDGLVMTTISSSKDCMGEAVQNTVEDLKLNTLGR
Briefly: Competitive fluorescence-quenching assay, Fel d 1. The format is binding, cat. To be noted: for Ki: Ligand inhibition constant Ki. How it is done:
as §1, §2, §3

Where [6] appears, read: 5 μM Ory c 3-1-AMA complex, 50 μM ligand, n = 2.
[7] abbreviates: read-out: Mean fluorescence inhibition, 5 μM Fel d 1 + 1,8-ANS complex, 100 μM ligand.
The mark [8] stands for this setting: 5 μM Fel d 1 + 1,8-ANS complex, 100 μM ligand, read-out: Mean fluorescence inhibition.
The mark [9] stands for this setting: read-out: Mean fluorescence inhibition, 5 μM Fel d 1 + 1-NPN complex, 100 μM ligand.

Sequence of Cav p 1.0201 (A0A484HRI4 entry or part of it): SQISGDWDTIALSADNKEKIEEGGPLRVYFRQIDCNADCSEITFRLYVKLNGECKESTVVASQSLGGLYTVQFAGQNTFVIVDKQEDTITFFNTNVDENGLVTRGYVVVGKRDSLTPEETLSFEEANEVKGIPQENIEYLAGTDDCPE
Sequence of Ory c 3 (Q9GK67 entry or part of it): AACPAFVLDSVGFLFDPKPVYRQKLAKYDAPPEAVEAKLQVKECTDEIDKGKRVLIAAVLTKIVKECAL
Sequence of Ory c 3 (Q9GK63 entry or part of it): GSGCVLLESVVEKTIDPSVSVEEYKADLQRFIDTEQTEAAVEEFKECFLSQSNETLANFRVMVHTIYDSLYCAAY
Sequence of Cav p 1.0101 (A0A484HM70 entry or part of it S19A): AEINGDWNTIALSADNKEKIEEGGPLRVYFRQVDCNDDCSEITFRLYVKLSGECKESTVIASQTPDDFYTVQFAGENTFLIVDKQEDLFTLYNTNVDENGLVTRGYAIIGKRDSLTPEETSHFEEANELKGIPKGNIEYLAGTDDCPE

The inhibition is the change of the read-out against control, counted positive when it falls. One may read the Ki as the dissociation constant of the complex between target and ligand, obtained from inhibition or displacement. Turning to `CCCCCCCCCCO` [1-Decanol, 1-decanol], the inhibition at 50 µM in assay [1] was determined as 99%; in assay [2] it was 98.2%; in assay [4] (setting [6]) it was 98%. Also, the Ki in assay [1] (Ligand inhibition constant Ki, 5 μM Cav p 1.0101, fluorochrome 1-AMA) turned out to be 800 nM; in assay [2], 1100 nM; in assay [4], 700 nM. For the same compound, in assay [3], the Mean fluorescence inhibition stood at 75.1%. Further, the inhibition at 100 µM in assay [5] (setting [7]) came to 68.4%.

In the case of `CCCCCCCCCCCCO` [1-Dodecanol, 1-dodecanol], the figures for the inhibition at 50 µM in assay [1], in assay [2] and in assay [4] (setting [6]) were 98.9%, 97% and 95.6%, respectively. In addition, in assay [3], the Mean fluorescence inhibition is 84.6%. Moreover, the inhibition at 100 µM in assay [5] (setting [8]) stood at 44.2%.

Turning to `CCCc1ccc(O)cc1` [4-Propylphenol, 4-propylphenol], the inhibition at 50 µM amounted to 65.7% in assay [1], 57% in assay [2] and 93.2% in assay [4] (setting [6]). The Ki in assay [3] (5 μM Ory c 2, fluorochrome 1-AMA, read-out: Ligand inhibition constant Ki) was determined as 2600 nM. Also, the Mean fluorescence inhibition in assay [3] worked out at 93.2%. Also, the values for the inhibition at 100 µM in assay [5] (setting [7]) and in assay [5] (setting [9]) were 52.8% and 65.3%, respectively.

As to `CCCCCCCCO` [Caprylic alcohol, 1-octanol], the inhibition at 50 µM in assay [1] is 86.7%; in assay [2], 82.1%; in assay [4] (setting [6]), 68.8%. Also, the Mean fluorescence inhibition in assay [3] is 65.3%. Also, the inhibition at 100 µM stood at 56.5% in assay [5] (setting [8]) and 49.2% in assay [5] (5 μM Fel d 1 + 1-NPN complex, 100 μM ligand, read-out: Mean fluorescence inhibition).

Consider `CCCCCCCCCC(=O)O` [Decanoic acid, decanoic acid], for which, in assay [4] (setting [6]), the inhibition at 50 µM worked out at 76.1%. Moreover, the inhibition at 100 µM in assay [5] (setting [7]) was 71.2%; in assay [5] (setting [9]) it was 101%.

Take `CCCCCCCCCCCC(=O)O` [Dodecanoic acid, dodecanoic acid]: the inhibition at 50 µM in assay [4] was 76.2%. In addition, the inhibition constant Ki in assay [5] (5 μM Fel d 1, fluorochrome 1,8-ANS) stood at 26700 nM; in assay [5] (5 μM Fel d 1, fluorochrome 1-NPN) it was 14400 nM. The values for the inhibition at 100 µM in assay [5] (setting [7]) and in assay [5] (setting [9]) were 75.2% and 91.7%, respectively.

In the case of `CC(C)=CCCC(C)=CC#N` [Geranyl nitrile, geranyl nitrile], the values for the Mean fluorescence inhibition in assay [1], in assay [2] and in assay [3] were 57.4%, 89.1% and 91.2%, respectively.

Consider `CCCCCCCCCCCCCCCO` [Pentadecanol, pentadecanol], for which the Mean fluorescence inhibition in assay [1] is 51.3%; in assay [2], 94.5%; in assay [3] it was 20.8%.

Regarding `CCCCCCCCCCCCCCO` [Tetradecanol, tetradecanol], the Mean fluorescence inhibition in assay [1] is given as 82.4%; in assay [2], 97.9%; in assay [3], 55.4%; in assay [4] (setting [6]), 92.9%; in assay [5] (5 μM Fel d 1 + 1,8-ANS complex, 100 μM ligand), 0.0%.

For the compound `CC(C)CCC[C@@H](C)[C@H]1CC[C@H]2[C@@H]3CC=C4C[C@@H](O)CC[C@]4(C)[C@H]3CC[C@]12C` [cholesterol], the Mean fluorescence inhibition entry in assay [1] and in assay [2] was “not observed” in each case.

For the compound monophosphoryl lipid A [MPLA], the Mean fluorescence inhibition entry in assay [1], in assay [2] and in assay [4] (setting [6]) was “more than half” each time.
